# Results: article PMC10859541 (Journal of Pharmaceutical Analysis, 2023)
# Where two headings read alike, the source gives them in different places.
# Legend:
# Assay in all cases: biolayer interferometry
# Format in all cases: binding
# metadherin (MTDH) [1] = target: T1, metadherin (MTDH) (Homo sapiens, UniProt Q86UE4)
# T1 sequence (Q86UE4 1-582): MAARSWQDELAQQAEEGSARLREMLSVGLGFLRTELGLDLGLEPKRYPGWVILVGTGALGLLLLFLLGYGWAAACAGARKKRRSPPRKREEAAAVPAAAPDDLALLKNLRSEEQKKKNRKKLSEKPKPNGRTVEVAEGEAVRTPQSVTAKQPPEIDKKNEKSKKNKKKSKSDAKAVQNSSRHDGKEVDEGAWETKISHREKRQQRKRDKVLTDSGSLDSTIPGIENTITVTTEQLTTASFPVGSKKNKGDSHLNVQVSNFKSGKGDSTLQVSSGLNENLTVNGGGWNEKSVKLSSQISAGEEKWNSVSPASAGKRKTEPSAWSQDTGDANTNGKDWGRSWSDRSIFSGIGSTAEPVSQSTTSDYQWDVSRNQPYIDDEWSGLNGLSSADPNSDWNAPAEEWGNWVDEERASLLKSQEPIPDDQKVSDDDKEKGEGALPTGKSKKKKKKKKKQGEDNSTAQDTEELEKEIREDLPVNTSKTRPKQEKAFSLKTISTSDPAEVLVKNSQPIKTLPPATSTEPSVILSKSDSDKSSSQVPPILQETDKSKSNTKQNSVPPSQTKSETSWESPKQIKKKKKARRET
# [2] = target: T2, PX domain containing serine/threonine kinase-like (PXK) (Homo sapiens, UniProt Q7Z7A4)
# T2 sequence (Q7Z7A4 1-578): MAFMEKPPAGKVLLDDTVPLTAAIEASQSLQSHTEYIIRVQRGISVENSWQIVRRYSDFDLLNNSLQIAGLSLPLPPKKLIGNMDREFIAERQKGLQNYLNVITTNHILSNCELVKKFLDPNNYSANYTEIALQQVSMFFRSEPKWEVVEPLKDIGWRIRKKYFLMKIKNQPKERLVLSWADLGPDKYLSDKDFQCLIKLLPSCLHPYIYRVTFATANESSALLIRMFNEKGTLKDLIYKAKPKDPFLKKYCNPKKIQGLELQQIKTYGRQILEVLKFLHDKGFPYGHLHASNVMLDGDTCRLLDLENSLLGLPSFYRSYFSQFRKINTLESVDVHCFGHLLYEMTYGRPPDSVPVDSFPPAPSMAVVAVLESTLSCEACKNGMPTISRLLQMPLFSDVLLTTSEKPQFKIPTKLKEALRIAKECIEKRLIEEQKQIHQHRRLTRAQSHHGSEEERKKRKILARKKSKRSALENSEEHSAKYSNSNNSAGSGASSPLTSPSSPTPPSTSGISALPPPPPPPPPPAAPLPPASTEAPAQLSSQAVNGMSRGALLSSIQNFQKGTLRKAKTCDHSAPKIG
# metadherin (MTDH) [3] = target: T1, metadherin (MTDH); remark: listed apart in the source
# [4] = target: T2, PX domain containing serine/threonine kinase-like (PXK); remark: listed apart in the source
Kd [2],Compound,Kd (metadherin (MTDH) [1]),Kd (metadherin (MTDH) [3]),Kd [4]
1700 µM,CC(=O)Oc1cc(OC(C)=O)c2c(c1)O[C@H](c1cc(OC(C)=O)c(OC(C)=O)c(OC(C)=O)c1)[C@H](OC(=O)c1cc(OC(C)=O)c(OC(C)=O)c(OC(C)=O)c1)C2 [ProEGCG],517 µM,,
,O=C(O[C@@H]1Cc2c(O)cc(O)cc2O[C@@H]1c1cc(O)c(O)c(O)c1)c1cc(O)c(O)c(O)c1 [EGCG],,0.27 µM,2420 µM
